Data as given in PMC4769088, “Antifungal Activity and Action Mechanism of Histatin 5-Halocidin Hybrid Peptides against Candida ssp” (PLoS ONE, 2016).
Where a SMILES comes first, the peptide text is derived from it. Bridges are numbered along the chain shown (N, C = ends). Roman numbers before positions name the chains, in order. Where no end group is shown, it is not given here.

What follows are compounds tested on Candida cells (assay: Candidacidal activity in energy depleted (azide) cells). Conditions: cells pre-incubated for 60 min in 5 mM NaN3 at 30°C, colony count assay.
Type: cell-based, Candida albicans
Description: The candidacidal activities of the peptides were tested by using standard microdilution plate assays, radial diffusion assays and broth dilution assay slightly modified from the procedure recommended by the National Committee for Clinical Laboratory Standards. For the candidacidal assays, C. albicans cells were grown in YPD medium and washed twice with 10 mM sodium phosphate buffer (NaPB; Na2HPO4, NaH2PO4, pH 7.4). The cells (1 x 10^6) were then mixed with different concentrations of peptides and incubated at 30°C with constant shaking for 60 min. For energy depletion experiments, cells were pre-incubated with 10 mM NaPB containing 5 mM NaN3 at 30°C for 60 min before the addition of peptides. The cell suspensions were diluted in 10 mM NaPB and aliquots of 500 cells were spread onto YPD agar plates then incubated for 24 h at 30°C to visualize the surviving colonies. Cell survival was expressed as a percentage of that for the control, and the loss of viability was calculated as [1 x (number of colonies from peptide-treated cells/number of colonies from control cells)] x 100. Candidacidal assays were performed in triplicate. For the radial diffusion assay, C. albicans cells were grown in YPD medium overnight and washed twice with 10 mM NaPB. Washed yeast-phase C. albicans cells (1 x 10^6 CFU) were trapped in thin underlay gels containing 9 mM sodium phosphate, 1 mM sodium citrate buffer, 1% (wt/vol) agarose (A6013; Sigma), and 0.3 mg of Sabouraud dextrose broth (Difco)/ml. After incubation at 37°C for 3 h, a 10 ml overlay gel of 1% agarose and 6% Sabouraud dextrose broth was poured on the underlay gel and then the plates were incubated overnight at 37°C. The clear-zone diameters were measured to the nearest 0.1 mm and graphed against the peptide concentration. Zone diameters were expressed in units (0.1 mm = 1 unit). For the broth dilution assay, the Candida strains were cultured in LYM broth for 18 h at 30°C. The numbers of yeasts were counted using a hemocytometer. Stock peptide solutions were prepared to a concentration of 320 μg/ml in distilled water, and were then serially diluted twofold, to 5 μg/ml. 100 μl aliquots of the diluted culture media containing candida cells (1 x 10^3) were dispensed into the wells of 96-well polypropylene microtiter plates (Costar 3879, Corning, NY), to which peptide solution (11 μl) was then added. In the experiments conducted to assess the candidacidal activity of peptides in the presence of salt, we used LYM supplemented with 150 mM NaCl for the culture medium, which was mixed with the peptide solution. The antifungal activities were evaluated after 24 h of incubation at 30°C by the observation of visible turbidity the wells. The MIC values were expressed as intervals (a–b), with a representing the highest tested concentration at which microbes continue to grow, and b representing the lowest concentration at which growth inhibition could be detected.
To confirm the killing effect of the peptides, washed Candida cells (1 × 10^7 cells/ml) were treated with the peptides and propidium iodide (PI) was added. For energy depletion experiments, cells were pre-incubated with 10 mM NaPB containing 5 mM NaN3 at 30°C for 60 min before the addition of peptides. Propidium iodide (PI) uptake was measured using a multi reader and calculated with the formula [propidium iodide (PI) uptake value of peptide-treated cells—propidium iodide (PI) value of control cells]
Fig 6 The effects of azide on killing activity of peptides. […]

Compound	antimicrobial activities in energy depleted cells
AKRHHGYKRKFH-NH2 [P113]	significantly reduced
CC(C)C[C@H](NC(=O)[C@@H](N)Cc1c[nH]c2ccccc12)C(=O)N[C@@H](CC(N)=O)C(=O)N[C@@H](C)C(=O)N[C@@H](CCCCN)C(=O)N[C@@H](CCCNC(=N)N)C(=O)N[C@@H](Cc1c[nH]cn1)C(=O)N[C@@H](Cc1c[nH]cn1)C(=O)NCC(=O)N[C@@H](Cc1ccc(O)cc1)C(=O)N[C@@H](CCCCN)C(=O)N[C@@H](CSSC[C@H](NC(=O)[C@H](CCCCN)NC(=O)[C@H](Cc1ccc(O)cc1)NC(=O)CNC(=O)[C@H](Cc1c[nH]cn1)NC(=O)[C@H](Cc1c[nH]cn1)NC(=O)[C@H](CCCNC(=N)N)NC(=O)[C@H](CCCCN)NC(=O)[C@H](C)NC(=O)[C@H](CC(N)=O)NC(=O)[C@H](CC(C)C)NC(=O)[C@@H](N)Cc1c[nH]c2ccccc12)C(=O)N[C@@H](CCCCN)C(=O)N[C@@H](Cc1ccccc1)C(=O)N[C@@H](Cc1c[nH]cn1)C(N)=O)C(=O)N[C@@H](CCCCN)C(=O)N[C@@H](Cc1ccccc1)C(=O)N[C@@H](Cc1c[nH]cn1)C(N)=O [di-WP2] (I: H-WLNAKRHHGYKCKFH-NH2 / II: H-WLNAKRHHGYKCKFH-NH2; disulfide I:12-II:12 (inferred); N-terminus assumed)	not inhibited
CC(C)C[C@H](NC(=O)CNC(=O)[C@H](Cc1c[nH]cn1)NC(=O)[C@H](Cc1c[nH]cn1)NC(=O)[C@H](CC(C)C)NC(=O)[C@H](CC(C)C)NC(=O)[C@H](C)NC(=O)[C@H](CC(N)=O)NC(=O)[C@H](CC(C)C)NC(=O)[C@@H](N)Cc1c[nH]c2ccccc12)C(=O)N[C@@H](CC(N)=O)C(=O)N[C@@H](CSSC[C@H](NC(=O)[C@H](CC(N)=O)NC(=O)[C@H](CC(C)C)NC(=O)CNC(=O)[C@H](Cc1c[nH]cn1)NC(=O)[C@H](Cc1c[nH]cn1)NC(=O)[C@H](CC(C)C)NC(=O)[C@H](CC(C)C)NC(=O)[C@H](C)NC(=O)[C@H](CC(N)=O)NC(=O)[C@H](CC(C)C)NC(=O)[C@@H](N)Cc1c[nH]c2ccccc12)C(=O)N[C@@H](C)C(=O)N[C@@H](CCCCN)C(=O)NCC(=O)N[C@H](C(=O)N[C@@H](CC(C)C)C(=O)N[C@@H](C)C(N)=O)C(C)C)C(=O)N[C@@H](C)C(=O)N[C@@H](CCCCN)C(=O)NCC(=O)N[C@H](C(=O)N[C@@H](CC(C)C)C(=O)N[C@@H](C)C(N)=O)C(C)C [di-18Hc, reference compound] (I: H-WLNALLHHGLNCAKGVLA-NH2 / II: H-WLNALLHHGLNCAKGVLA-NH2; disulfide I:12-II:12 (inferred); N-terminus assumed)	not inhibited
C[C@H](NC(=O)[C@H](Cc1c[nH]cn1)NC(=O)[C@H](CO)NC(=O)[C@@H](N)CC(=O)O)C(=O)N[C@@H](CCCCN)C(=O)N[C@@H](CCCNC(=N)N)C(=O)N[C@@H](Cc1c[nH]cn1)C(=O)N[C@@H](Cc1c[nH]cn1)C(=O)NCC(=O)N[C@@H](Cc1ccc(O)cc1)C(=O)N[C@@H](CCCCN)C(=O)N[C@@H](CCCNC(=N)N)C(=O)N[C@@H](CCCCN)C(=O)N[C@@H](Cc1ccccc1)C(=O)N[C@@H](Cc1c[nH]cn1)C(=O)N[C@@H](CCC(=O)O)C(=O)N[C@@H](CCCCN)C(=O)N[C@@H](Cc1c[nH]cn1)C(=O)N[C@@H](Cc1c[nH]cn1)C(=O)N[C@@H](CO)C(=O)N[C@@H](Cc1c[nH]cn1)C(=O)N[C@@H](CCCNC(=N)N)C(=O)NCC(=O)N[C@@H](Cc1ccc(O)cc1)C(=O)O [Hst 5, Histatin 5]	significantly reduced
CC(C)C[C@H](NC(=O)CNC(=O)[C@H](Cc1c[nH]cn1)NC(=O)[C@H](Cc1c[nH]cn1)NC(=O)[C@H](CCCNC(=N)N)NC(=O)[C@H](CCCCN)NC(=O)[C@H](C)N)C(=O)N[C@@H](CC(N)=O)C(=O)N[C@@H](CSSC[C@H](NC(=O)[C@H](CC(N)=O)NC(=O)[C@H](CC(C)C)NC(=O)CNC(=O)[C@H](Cc1c[nH]cn1)NC(=O)[C@H](Cc1c[nH]cn1)NC(=O)[C@H](CCCNC(=N)N)NC(=O)[C@H](CCCCN)NC(=O)[C@H](C)N)C(=O)N[C@@H](C)C(=O)N[C@@H](CCCCN)C(=O)N[C@@H](Cc1ccccc1)C(=O)N[C@@H](Cc1c[nH]cn1)C(N)=O)C(=O)N[C@@H](C)C(=O)N[C@@H](CCCCN)C(=O)N[C@@H](Cc1ccccc1)C(=O)N[C@@H](Cc1c[nH]cn1)C(N)=O [di-PH2] (I: H-AKRHHGLNCAKFH-NH2 / II: H-AKRHHGLNCAKFH-NH2; disulfide I:9-II:9 (inferred); N-terminus assumed)	significantly reduced
